The record followed here is patent publication US20050008896A1, “Luminous organic compound and manufacturing method” (Orient Chemical Ind., Ltd., priority 2003, published 2005).

Each structure is given as a SMILES string.

Data set [1] is described as follows: Fluorescence (photoluminescence) intensity in ethanol, fluorescence spectrophotometer RF-5300PC. It counts as physicochemical. On the procedure: Fluorescence intensity of each obtained compound was measured in order to evaluate fluorescence property.
A method of the evaluation is as follows. 25 mg of each compound was dissolved in 100 ml of ethanol respectively. The fluorescence intensity, photoluminescence intensity, was measured by a fluorescence spectrophotometer RF-5300PC that is available from Shimadzu Corporation. The measured results of the luminous organic compounds 1 to 9 and 11, the comparative compounds 1 to 3 and the metal complex intermediate 1 to 3 are indicated in Table 3. […] The relative value (2) of the fluorescence intensity indicates the value related to the fluorescence intensity of the metal complex intermediate 3 regarded as 1.00.

For data set [2] the following is noted: stood at room temperature overnight.
Description: A method of measurement of the solubility is as follows. After the prescribed amount of the compound was added to each solvent, it was heated by water bath and irradiated supersonic wave for 1 hour. It was stood at room temperature overnight, and filtrated. Obtained residue was dried. Amount of insoluble residue was weighed, and solubility (w/v %) was determined.
[3] abbreviates: 25 mg of compound in 100 ml of ethanol.

For `C[N+](C)(C)CCCC[N+](C)(C)C.O=C(C=C([O-])C(F)(F)F)c1ccc2ccccc2c1.O=C(C=C([O-])C(F)(F)F)c1ccc2ccccc2c1.O=C(C=C([O-])C(F)(F)F)c1ccc2ccccc2c1.O=C(C=C([O-])C(F)(F)F)c1ccc2ccccc2c1.O=C(C=C([O-])C(F)(F)F)c1ccc2ccccc2c1.O=C(C=C([O-])C(F)(F)F)c1ccc2ccccc2c1.O=C(C=C([O-])C(F)(F)F)c1ccc2ccccc2c1.O=C(C=C([O-])C(F)(F)F)c1ccc2ccccc2c1.[Al+3].[Al+3]` [Luminous Organic Compound 11], the “Relative Value of Fluorescence Intensity, Relative Value (1) (Related to Comparative Compound 3)” value in data set [1] was 0.52. In addition, in data set [1] (setting [3]), the “Fluorescence Intensity” value is 262 and the “center of Luminous Wave” value is recorded as “(455 nm)”. In addition, the “Relative Value of Fluorescence Intensity, Relative Value (2) (Related to Metal Complex Intermediate 3)” value in data set [1] (metal complex intermediate 3 regarded as 1.00) turned out to be 0.53. The “Solubility, Ethanol” value in data set [2] (ethanol) is recorded as 0.21 w/v %. Further, the “Solubility, Ethyl Acetate” value in data set [2] (ethyl acetate) is given as 1.60 w/v %. Also, the “Solubility, Methyl Ethyl Ketone” value in data set [2] (methyl ethyl ketone) is on record as “over 10.0 w/v %”. Further, the “Solubility, Toluene” value in data set [2] (toluene) was 0.25 w/v %. For the same compound, the “Solubility, Xylene” value in data set [2] (xylene) is listed as 0.10 w/v %.
